Calls of active or inactive are those of the source. The calls are words filed in the database; no cut-off is given here.
Experiments:
PC-12 [1] = assay: Prevention of serum deprivation-induced PC12 cell apoptosis at > 100 uM by MTT assay; format: functional, cell-based; settings: Rattus norvegicus
Adenosine receptor A2a = Adenosine receptor A2a (Rattus norvegicus, UniProt P30543); assay: Binding affinity to adenosine A2A receptor in rat brain striatum; format: tissue-based
PC-12 [2] = assay: Prevention of serum deprivation-induced PC12 cell apoptosis by MTT assay; format: functional, cell-based; settings: Rattus norvegicus
PC-12 [3] = assay: Prevention of serum deprivation-induced PC12 cell apoptosis at 100 uM by MTT assay; format: functional, Rattus norvegicus

Chain of Adenosine receptor A2a (P30543 whole entry): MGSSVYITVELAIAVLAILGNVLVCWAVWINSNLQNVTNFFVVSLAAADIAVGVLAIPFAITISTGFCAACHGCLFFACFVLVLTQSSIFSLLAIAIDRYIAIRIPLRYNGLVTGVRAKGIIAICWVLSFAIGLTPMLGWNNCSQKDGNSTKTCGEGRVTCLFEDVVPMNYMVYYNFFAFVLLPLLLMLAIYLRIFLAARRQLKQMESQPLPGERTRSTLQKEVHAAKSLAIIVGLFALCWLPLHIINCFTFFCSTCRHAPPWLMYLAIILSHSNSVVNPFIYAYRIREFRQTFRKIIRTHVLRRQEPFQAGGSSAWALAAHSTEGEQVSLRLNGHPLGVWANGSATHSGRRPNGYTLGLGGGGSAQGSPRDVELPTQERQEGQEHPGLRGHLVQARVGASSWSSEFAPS

SMILES	Activity (PC-12 [1])	IC50 (Adenosine receptor A2a)	Ki (Adenosine receptor A2a)	EC50 (PC-12 [2])	Activity (PC-12 [3])
C[C@H]1O[C@@H](Oc2ccc(COC(=O)CC(O)(CC(=O)OCc3ccc(O[C@@H]4O[C@H](CO)[C@@H](O)[C@H](O)[C@H]4O)cc3)C(=O)Oc3ccc(O[C@H]4O[C@H](CO)[C@@H](O)[C@H](O)[C@H]4O)cc3)cc2)[C@H](O)[C@@H](O)[C@@H]1O (some centres undefined)	inactive	–	–	–	–
OC[C@H]1O[C@@H](n2cnc3c(NCc4ccc(O)cc4)ncnc32)[C@H](O)[C@@H]1O	–	4.66 µM	2.62 µM	0.037 µM	–
Oc1ccc(CSCc2ccc(O)cc2)cc1	–	42.9 µM	24.1 µM	7.2 µM	–
Nc1ncnc2c1ncn2[C@@H]1O[C@H](CO)[C@@H](O)[C@H]1O [ADENOSINE]	–	–	–	–	80%
OCc1ccc(O[C@@H]2O[C@H](CO)[C@@H](O)[C@H](O)[C@H]2O)cc1	inactive	–	–	–	–
